The values below come from patent US8957076B2, “Wound healing” (Systagenix Wound Management (US), Inc., priority 2004, dated 2015).

Each structure is given as a SMILES string.

The test has as its system diabetic wounds. Description: Closure of full thickness flank skin wounds in diabetic mice, topical treatment. Type of test: in vivo, mice (C57BLKs/Bom db/db). The conditions noted are these: for % wound area remaining relative to day 0 (mean ± standard error): six wounds. The method, then: Female diabetic mice (C57BLKs/Bom db/db; B&M, Denmark) aged approximately 16 weeks will be used in this study. On arrival mice were housed in groups of 5 to 10 according to Home Office regulations. On the first day of the study period, animals were housed in individual cages (cage dimensions 35×15×15 cm with sawdust bedding, changed twice weekly), in an environment maintained at an ambient temperature of 23° C. with 12-hour light/dark cycles. They were provided with food (Standard Rodent Diet) and water ad libitum. To acclimatise the animals to their surroundings, prior to experimentation, they were housed for a minimum of one week without disturbance, other than to refresh their bedding and to replenish their food and water provisions. Following wounding, animals were monitored until they had fully recovered from the procedure and then housed under individual conditions for the remainder of the study period. All animal procedures were carried out in a Home Office licensed establishment in accordance with Home Office Licence procedures. Animals were anaesthetised (halothane and air) and shaved. A single standardised full thickness wound (7.5 mm×7.5 mm) was created in the flank skin of each experimental animal. Wounds received, saline [50 μl], vehicle [50 μl pH 4.0 vehicle], 1 μg of p38 MAP kinase inhibitor [in 50 μl pH 4.0 vehicle] or 10 μg of p38 MAP kinase inhibitor [in 50 μl pH 4.0 vehicle]. The p38 MAP kinase inhibitor had the following formula: All wounds were secondarily dressed with a 1.5×1.5 cm pad of RELEASE dressing (Johnson & Johnson Wound Management). The RELEASE pad was held in place using a circumferential band of the occlusive film dressing Bioclusive (Johnson & Johnson Wound Management). Animals were re-anaesthetized and treatments re-applied on days 2, 4, 7, 9 and 11-post wounding. Immediately after wounding and subsequently on days 2, 4, 7, 9, 11 and 14 all wounds were digitally photographed together with a calibration/identity plate. On day 14 of the study animals will be euthanised. Image Pro image analysis software (version 4.1.0.0, Media Cybernetics, USA) was used to calculate wound closure from wound images in each of the experimental groups over time. Non-parametric analysis (Kruskal Wallis—Multivariate Analysis followed by ad hoc two sample Mann Whitney U-test analysis) will be used to test the significance of any inter-group differences in wound closure.

Take `CC(=O)N1CCN(c2c(-c3ccncc3)c(-c3ccc(F)cc3)c(C#N)n2C)CC1` [p38 MAP kinase inhibitor]: the “% wound area remaining relative to day 0 (mean ± standard error)” value reads like this: (1.0 μg per wound in 50 μl pH 4.0 vehicle, day 2 post-wounding) 86.15 ± 6.63%; (1.0 μg per wound in 50 μl pH 4.0 vehicle, day 4 post-wounding) 66.32 ± 6.58%; (1.0 μg per wound in 50 μl pH 4.0 vehicle, day 7 post-wounding) 38.65 ± 2.62%; (1.0 μg per wound in 50 μl pH 4.0 vehicle, day 9 post-wounding) 18.87 ± 4.44%; (1.0 μg per wound in 50 μl pH 4.0 vehicle, day 11 post-wounding) 6.03 ± 2.17%; (10.0 μg per wound in 50 μl pH 4.0 vehicle, day 2 post-wounding) 75.48 ± 6.32%. The “% wound area remaining relative to day 0 (mean ± standard error)” value by setting is: (10.0 μg per wound in 50 μl pH 4.0 vehicle, day 4 post-wounding) 58.34 ± 6.49%; (10.0 μg per wound in 50 μl pH 4.0 vehicle, day 7 post-wounding) 29.80 ± 4.66%; (10.0 μg per wound in 50 μl pH 4.0 vehicle, day 9 post-wounding) 13.31 ± 1.64%; (10.0 μg per wound in 50 μl pH 4.0 vehicle, day 11 post-wounding) 3.34 ± 0.96%. Further, the “closure compared to saline treatment” value (10.0 μg, day 2, 7, 11 p=0.055, day 9 p=0.025 (statistically significant)) is “noticeably more rapid”. Also, the “wound size compared to citrate treated wounds” value (10.0 μg, day 9 and day 11 assessment points) is reported as “statistically smaller”. Also, the “closure of diabetic wounds compared to treatment with the vehicle” value (versus Citrate Buffer, pH 4.0, effect most apparent for the highest dose) is listed as “appeared to accelerate the closure of diabetic wounds”.
